The source of these data is PubChem BioAssay (NCI).

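These data come from cells grown in 96-well plates and exposed to compound for 48 hours at five concentrations. At the TGI there is no net growth.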

Among the test systems are HOP-18 NSCLC; KM20L2 colon; M19-MEL melanoma; P388 leukemia; P388/ADR leukemia; SN12K1 renal; RXF-631 renal.
What all share (test): NCI tumour cell line growth inhibition, 48 h

As to `COc1cc2c(cc1O)N=C[C@@H]1CCC(O)N1C2=O` (mixture of isomers), the TGI with HOP-18 NSCLC stood at 3.39 µM; with KM20L2 colon it was 24.9 µM; in the assay with M19-MEL melanoma it was 4.81 µM; in the assay on P388 leukemia, 9.2 µM; with P388/ADR leukemia it was 5.15 µM; in the assay on SN12K1 renal it was 25 µM.

Turning to `CC1CC(c2ccc([N+](=O)[O-])cc2)=Nc2ccccc2S1=O` (centres undefined), the TGI turned out to be 29.9 µM in the assay on KM20L2 colon, 30.8 µM with M19-MEL melanoma and 52.6 µM in the assay with RXF-631 renal.
